Consider one molecule from patent publication US7700644B2, “Isoflavonoid dimers” (Novogen Research Pty Ltd, priority 2005, dated 2010).

One may read the IC50 as the concentration that gives 50% inhibition. Low readings indicate inhibition by little substance, high ones a need for much substance.

For data set [1], the system named is Neonatal foreskin fibroblasts (NFF). The data set is described as follows: Normal cell toxicity, MTT proliferation assay, NFF. The class given is cell-based, human. As for the experimental part:
(§1) Neonatal foreskin fibroblasts (NFF) were a gift from Dr. Peter Parsons (Queensland Institute of Medical Research). RK-13 (rabbit kidney) cells were obtained from Miller Whalley (Macquarie University). Both cell types were cultured in RPMI supplemented with 10% FCS (CSL, Australia), penicillin (100 U/ml), streptomycin ([…]), L-glutamine (2 mM) and sodium bicarbonate (1.2 g/L), and cultured at 37° C. in a humidified atmosphere of 5% CO2.
(§2) IC50 values were determined for each cell line. Cells were seeded in 96-well plates at an appropriate cell density as determined from growth kinetics analysis. NFFs were cultured for 5 days and RK-13s for 24 hrs in the absence and presence of the test compounds. Cell proliferation was assessed after the addition of 20 μl of 3-4,5 dimethylthiazol-2,5-diphenyl tetrazolium bromide (MTT, 2.5 mg/ml in PBS, Sigma) for 3-4 hrs at 37° C. according to manufacturer's instructions. IC50 values were calculated from semi-log plots of % of control proliferation on the y-axis against log dose on the x-axis.
Duplicate cytotoxicity assays against NFF cells were conducted with dehydroequol (DHE), 4,9-dihydroxy-14,15-dimethoxy-12a-(3′,4′-dimethoxyphenyl)-3,10-dimethyl-2,11-dioxa-(1H,12H)-6b,6c,12a,16b-tetrahydronaphtho[1,2-g]chrysene (2) from Example 6.1 and cisplatin.
Background: Tetrazolium assays rely on reduction of a dye to a coloured formazan, in cell work by metabolically active cells.

Data set [2] concerns RK-13 (rabbit kidney) cells. The data set is described as follows: Normal cell toxicity, MTT proliferation assay, rabbit kidney cells. The class given is cell-based. As to conditions: Oryctolagus cuniculus, 24 hrs. As for the experimental part:
as §1, §2

The subject of the next data set is PC3 (Prostate). The data set is described as follows: In vitro cytotoxicity, MTT proliferation assay, PC3. The data set is classed as cell-based, human. As to conditions: Homo sapiens. As for the experimental part: (§3) The human pancreatic cancer cell line, HPAC (CRL-2119) was routinely cultured in 1:1 mixture DMEM (Sigma) plus Ham's F12 (Sigma) medium containing HEPES (15 mM), insulin (0.002 mg/ml), transferrin (0.005 mg/ml), hydrocortisone, (40 ng/ml), epidermal growth factor (10 ng/ml). The ovarian cancer cell line CP70 was obtained as a gift from Dr. Gil Mor (Yale University) and cultured in a 1:1 mixture DMEM plus Ham's F12 medium, and SKOV-3 was purchased from ATCC and cultured in McCoy's 5a medium. The breast cancer cell line MDA-MB-468 cultured in Leibovitz's L-15 medium.
(§4) All cultures were supplemented with 10% FCS(CSL, Australia), penicillin (100 U/ml), streptomycin ([…]), L-glutamine (2 mM) and sodium bicarbonate (1.2 g/L), and cultured at 37° C. in a humidified atmosphere of 5% CO2. All remaining cell lines were purchased from ATCC (Maryland, USA) except where noted.
as §2

The subject of a further data set is NCI-H23 (Lung). The data set is described as follows: In vitro cytotoxicity, MTT proliferation assay, NCI-H23. The class given is cell-based. The following applies: Homo sapiens. The procedure:
as §3, §4
IC50 values were determined for each cell line. Cells were seeded in 96-well plates at an appropriate cell density as determined from growth kinetics analysis. […] Cell proliferation was assessed after the addition of 20 μl of 3-4,5 dimethylthiazol-2,5-diphenyl tetrazolium bromide (MTT, 2.5 mg/ml in PBS, Sigma) for 3-4 hrs at 37° C. according to manufacturer's instructions. IC50 values were calculated from semi-log plots of % of control proliferation on the y-axis against log dose on the x-axis.

The subject of a further data set is NCI-H460 (Lung). The data set is described as follows: In vitro cytotoxicity, MTT proliferation assay, NCI-H460. The data set is classed as cell-based, human. The following applies: Homo sapiens. The procedure:
as §3, §4, §2

Another data set deals with HCT-15 (Colorectal). The data set is described as follows: In vitro cytotoxicity, MTT proliferation assay, HCT-15. As to conditions: Homo sapiens; Colorectal HCT-15. The class given is cell-based, human. As for the experimental part:
as §3, §4, §2

The nature of data set [3]: Oral pharmacokinetics in mice. The class given is in vivo, female BALB/c mice. The following applies: 50 mg/kg. As for the experimental part: 4,9-Dihydroxy-14,15-dimethoxy-12a-(3′,4′-dimethoxyphenyl)-3,10-dimethyl-2,11-dioxa-(1H,12H)-6b,6c,12a,16b-tetrahydronaphtho[1,2-g]chrysene (2) from Example 6.1 was prepared as homogenous suspensions in 1% CMC (m:v, water). The Cpd. 2 formulation was delivered orally by gavage to female BALB/c mice at a dosage of 50 mg/kg. Three animals were allocated to each time point (15 min, 30 min, 1 hr, 4 hr and 24 hr). At each respective time point, animals were euthanased by cervical dislocation and blood collected. Free Cpd.

The subject of a further data set is splenocytes. The data set is described as follows: Murine splenocyte proliferation with mitogens (MTT), 3 day incubation with compound. The data set is classed as cell-based, Male Skh-1 (hairless) mice. As for the experimental part: Male Skh-1 (hairless) mice, six weeks old were killed by cervical dislocation. Single cell suspensions were made from their spleens and erythrocytes were lysed in buffer (0.14M NH4Cl, 17 mM Tris, pH 7.2). The remaining splenocytes were cultured in RPMI-1640 (Gibco) supplemented with 10% (v:v) FBS, 200 mM L-glutamine, penicillin/streptomycin and […] 2-mercaptoethanol. […] Samples were analysed after a 3 day incubation at 37° C. in 5% CO2 in air. To assess cell numbers, methylthiazoletetrazolium (MTT) was added to each well, incubated for a further 4 hrs and then colour developed with 0.04N HCl in isopropanol (Mosmann 1983). Plates were read at 570 nm and 630 nm. The compounds were examined several times using different mice. For each assay, the effect of test compound was compared with that of vehicle control, and the results compared using a student's t test (Prism). Statistically significant difference was determined to have occurred when p<0.05.

Data set [4] can be described thus: Toxicity study, i/p administration in mice. The data set is classed as in vivo. As to conditions: 50 mg/kg i/p daily. As for the experimental part:
In a small study, BALB/cnu/nu mice were administered with either Compound 2 (n=2) as a solution in 6% Tween 20:PBS at 50 mg/kg or an equivalent volume of vehicle (n=2), by i/p injection. Mice were weighed and observed for signs of toxicity daily using clinical monitoring sheets. On day 9, mice were killed by cervical dislocation, and the kidney, spleen and liver of each mouse were collected for histological assessment of toxicity.

As for `COc1ccc(C23COc4c(ccc(O)c4C)C2C2c4ccc(O)c(C)c4OCC2c2cc(OC)c(OC)cc23)cc1OC` (stereo not shown) [Cpd. 2, 4,9-Dihydroxy-14,15-dimethoxy-12a-(3′,4′-dimethoxyphenyl)-3,10-dimethyl-2,11-dioxa-(1H,12H)-6b,6c,12a,16b-tetrahydronaphtho[1,2-g]chrysene], the IC50 in data set [1] (Homo sapiens, 120 h, NFF fibroblast, cultured 5 days, MTT) came to 23.6 ± 6.6 µM; in [2], 36 ± 2.7 µM; in the data set with PC3 (Prostate), 7.36 ± 1.35 µM; with NCI-H23 (Lung) it was 16.4 µM; with NCI-H460 (Lung), 11.3 ± 4.97 µM; in the data set on HCT-15 (Colorectal), 54.7 ± 28 µM. Besides, in data set [1] (normal cells (NFF, rabbit kidney)), the “toxicity to normal cells relative to cisplatin and dehydroequol” value is “less toxic to normal cells than cisplatin, but more toxic than dehydroequol”. Besides, in [3] (female, BALB/c, mouse, blood, oral gavage, Time 0.25 (15 min), read-out: Free concentration in blood), the concentration at 15 min was determined as 1.33 µM. In addition, the concentration at 30 min in data set [3] (female, BALB/c, mouse, blood, oral gavage, Time 0.5 (30 min), read-out: Free concentration in blood) is 4.93 µM. Moreover, the concentration at 1 h in [3] (female, BALB/c, mouse, blood, oral gavage, Time 1 (1 hr), read-out: Free concentration in blood) is 6.76 µM. In addition, in data set [3] (female, BALB/c, mouse, blood, oral gavage, Time 4 (4 hr), read-out: Free concentration in blood), the concentration at 4 h worked out at 6.31 µM. Also, the concentration at 24 h in data set [3] (female, BALB/c, mouse, blood, oral gavage, Time 24 (24 hr), read-out: Free concentration in blood) was 1.15 µM. In data set [3] (oral), the “half-life compared to dehydroequol” value was “superior half-life at times up to 4 hours compared to dehydroequol”. Further, the “rate of conjugation compared to dehydroequol” value in [3] (oral) was “slow rate of conjugation compared to dehydroequol”. Besides, the “effect on splenocyte proliferation” value in the data set on splenocytes (10 μM, four different assays) is on record as “no consistent trend”. For the same molecule, the “proliferation compared with vehicle control” value in the data set on splenocytes (higher concentrations (than 10 μM), regardless of mitogenic stimulation) is recorded as “reduced proliferation”. Moreover, the “body weight gain vs vehicle” value in data set [4] (9 days) is on record as “no difference”. Besides, in data set [4] (9 days), the clinical signs entry is “no abnormal clinical signs”. For the same molecule, the “histological assessment of toxicity (kidney, spleen, liver)” value in [4] (day 9) is recorded as “no histological evidence of toxicity”.
